Among the test systems are 786-0; A498; A549; DLD-1; EKVX; HL-60; HOP-92; Malme-3M; OVCAR-4; OVCAR-5; RPMI-8226; SK-MEL-2; SN12C; SW-620; UACC-62; DU-145; Hs-578T; MCF7; MDA-MB-435; NCI/ADR-RES.
Common to all, as to experiment: inhibition of tumour cell growth, NCI panel, 48 h

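Briefly, cells in 96-well plates were exposed to five compound concentrations for 48 h, and endpoints were estimated by linear interpolation. Abbreviation: GI50, concentration required for 50% inhibition of growth.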 Activity calls are given as the source filed them. Rule as the data show it: active = GI50 up to about 1.1 µM and inactive = higher.

In the case of `O=C1O/C(=C(\Br)c2cccc3ccccc23)c2ccccc21`, the GI50 is 17.4 µM (inactive) in the test on 786-0; 19.1 µM (inactive) in the test with A498; 20 µM (inactive) with A549; 23.5 µM (inactive) in the test on DLD-1; > 42 µM (inactive) in the test on EKVX; 19.5 µM (inactive) in the test with HL-60. The GI50 with HOP-92 is 29 µM (inactive); in the test on Malme-3M, > 46.7 µM (inactive); with OVCAR-4, 16.5 µM (inactive); in the test on OVCAR-5, > 40.2 µM (inactive); in the test with RPMI-8226, 22.2 µM (inactive); with SK-MEL-2, > 42.8 µM (inactive). Moreover, the GI50 was 21.3 µM (inactive) in the test on SN12C, 27 µM (inactive) in the test on SW-620 and 35.2 µM (inactive) in the test on UACC-62.
Turning to `COc1ccc(OC)c(NC(=O)CCC/C(CC(=O)c2ccc(O)c(OC)c2)=N\Nc2ccc([N+](=O)[O-])cc2)c1`, the GI50 in the test on 786-0 is 27.6 µM (inactive); in the test with A498, > 100 µM (inactive); in the test on A549, > 100 µM (inactive); in the test with DLD-1 it was > 100 µM (inactive); in the test with EKVX it was 59 µM (inactive); in the test with HL-60 it was > 100 µM (inactive). Also, the GI50 was 34.3 µM (inactive) in the test on HOP-92; > 100 µM (inactive) in the test on Malme-3M; > 100 µM (inactive) in the test with OVCAR-4; > 100 µM (inactive) in the test on OVCAR-5; > 100 µM (inactive) in the test on RPMI-8226; 51.8 µM (inactive) with SK-MEL-2. Also, the GI50 in the test with SN12C is > 100 µM (inactive); with SW-620, > 100 µM (inactive); in the test with UACC-62, 48.8 µM (inactive).
For `COC(C)(C)[C@H](O)C(O)CC(C)[C@@H]1CCC23CC12CCC1[C@@]2(C)CCC(OC(C)=O)C(C)(C)C2CC(OC2OC(COC(C)=O)C(O)C(O)C2O)[C@]13C` (some centres not stated), the GI50 with 786-0 was 6.58 µM (inactive); with A498, 8.83 µM (inactive); in the test with A549, 2.94 µM (inactive); with DLD-1, 1.83 µM (inactive); in the test with EKVX, 7.46 µM (inactive); with HL-60, 1.35 µM (inactive). Also, the GI50 in the test on HOP-92 is 3.72 µM (inactive); in the test with Malme-3M it was 7.87 µM (inactive); in the test with OVCAR-4, 4.55 µM (inactive); with OVCAR-5, 2.34 µM (inactive); in the test with RPMI-8226, 0.264 µM (active); in the test on SK-MEL-2, 9.29 µM (inactive). Also, the figures for the GI50 in the test with SN12C, in the test with SW-620 and with UACC-62 were 2.99 µM (inactive), 5.35 µM (inactive) and 2.77 µM (inactive), respectively.
For `CC(C)(C)C1CC[C@H]2c3c([nH]c4ccc(Br)cc34)[C@H]3C(=O)N(c4ccccc4)C(=O)[C@H]3[C@H]2C1` (some centres not stated), the GI50 with 786-0 is 6.67 µM (inactive); in the test with A549, 27.4 µM (inactive); in the test on DLD-1, 27.8 µM (inactive); with EKVX, 92.9 µM (inactive); in the test with HL-60, 7.71 µM (inactive); in the test with HOP-92 it was 23.1 µM (inactive). For the same molecule, the GI50 was 31.6 µM (inactive) in the test with Malme-3M; 11.2 µM (inactive) in the test on OVCAR-4; > 100 µM (inactive) in the test with OVCAR-5; 98.2 µM (inactive) with RPMI-8226; 50.9 µM (inactive) with SK-MEL-2; 13.5 µM (inactive) with SN12C. In addition, the figures for the GI50 in the test on SW-620 and in the test with UACC-62 were 17.4 µM (inactive) and 23.3 µM (inactive), respectively.
For the molecule `O=C1CCCC/C(=C/c2ccccc2)N1`, the GI50 in the test on 786-0, with A498, in the test on A549, with DLD-1, in the test on EKVX and with HL-60 was > 100 µM (inactive) throughout. In addition, the GI50 in the test on HOP-92, with Malme-3M, in the test with OVCAR-4, in the test on OVCAR-5, in the test on RPMI-8226 and in the test on SK-MEL-2 was > 100 µM (inactive) in each case. Further, the GI50 in the test with SN12C, in the test with SW-620 and in the test on UACC-62 was > 100 µM (inactive) each time.
As to `CC(=O)O[C@H]1CC[C@@]2(C)C(=CC[C@@H]3C2CC[C@]2(C)Nc4[nH]ncc4CC32)C1` (some centres not stated), the GI50 in the test with 786-0 was > 100 µM (inactive); with A498 it was > 100 µM (inactive); in the test with A549, 32.2 µM (inactive); with DLD-1, 32 µM (inactive); in the test with EKVX, 29.8 µM (inactive); in the test with HL-60 it was 20.5 µM (inactive). The GI50 is 25.6 µM (inactive) with Malme-3M; 18.5 µM (inactive) in the test on OVCAR-4; > 100 µM (inactive) in the test with OVCAR-5; 25.5 µM (inactive) in the test on RPMI-8226; 28.2 µM (inactive) in the test with SK-MEL-2; 34.8 µM (inactive) in the test with SW-620. For the same molecule, in the test with UACC-62, the GI50 was 26.1 µM (inactive).
`CC(=O)NC(CCCCNC(=O)NCCCl)C(=O)NCc1ccccc1` (configuration not stated): the GI50 in the test with 786-0, with A549, with DLD-1, in the test with EKVX, in the test on HL-60 and with HOP-92 was > 100 µM (inactive) in each case. Further, the GI50 in the test with Malme-3M, with OVCAR-4, in the test with RPMI-8226, with SK-MEL-2, in the test on SN12C and with SW-620 was > 100 µM (inactive) in each case. The GI50 in the test on UACC-62 is > 100 µM (inactive).
In the case of `CCO/C=C/C(C)C1(C(=O)OCC)CCCCC1=O` (configuration not stated), the GI50 is 56.8 µM (inactive) in the test on 786-0; > 100 µM (inactive) in the test with A498; > 100 µM (inactive) in the test on A549; > 100 µM (inactive) with DLD-1; > 100 µM (inactive) in the test with EKVX; 71.1 µM (inactive) in the test on HL-60. The GI50 is > 100 µM (inactive) with HOP-92; > 100 µM (inactive) with Malme-3M; > 100 µM (inactive) in the test with OVCAR-4; > 100 µM (inactive) in the test on OVCAR-5; 84.1 µM (inactive) in the test with RPMI-8226; > 100 µM (inactive) with SK-MEL-2. The GI50 with SN12C and in the test with UACC-62 was > 100 µM (inactive) in each case.
As for `O=C(C(=O)N1CC2C=CC1CC2)c1c[nH]c2ccccc12` (configuration not stated), the GI50 with 786-0, with A498, with A549, in the test with DLD-1, in the test with HL-60 and in the test with HOP-92 was > 100 µM (inactive) throughout. In addition, the GI50 in the test with Malme-3M, with OVCAR-4, in the test with OVCAR-5, with RPMI-8226, in the test on SK-MEL-2 and with SN12C was > 100 µM (inactive) throughout. In addition, the GI50 with SW-620 and in the test on UACC-62 was > 100 µM (inactive) throughout.
For `CCOP(=O)(C/C(O)=C1\C(=O)C(CCCNC(=O)OC(C)(C)C)N(Cc2ccc(OC)c(OC)c2)C1=O)OCC` (configuration not stated), the GI50 in the test with 786-0, in the test on A498, with A549, in the test with DLD-1, in the test with EKVX and in the test with HL-60 was > 100 µM (inactive) each time. The GI50 in the test on Malme-3M, in the test on OVCAR-4, with OVCAR-5, in the test with RPMI-8226, in the test with SK-MEL-2 and in the test with SN12C was > 100 µM (inactive) each time. The GI50 in the test on SW-620 and in the test on UACC-62 was > 100 µM (inactive) each time.
For the molecule `CCC(C)Cn1c(C)nc2c1C(=O)c1ccccc1C2=O` (configuration not stated), the GI50 with 786-0 was 23.1 µM (inactive); in the test on A549, 31.5 µM (inactive); in the test with DLD-1, 24.6 µM (inactive); in the test on EKVX, 31.9 µM (inactive); in the test with HL-60, 5.06 µM (inactive); in the test with HOP-92, 20.4 µM (inactive). The GI50 in the test on Malme-3M is 27.7 µM (inactive); in the test on OVCAR-4, 38 µM (inactive); with SK-MEL-2, 33.1 µM (inactive); with SN12C, 36.1 µM (inactive); in the test on SW-620, 38.7 µM (inactive); with UACC-62, 9.98 µM (inactive).
As for `COc1ccc(-c2cc(=O)c3ccccc3[nH]2)c(OC)c1`, the GI50 is > 100 µM (inactive) in the test on 786-0; > 100 µM (inactive) in the test with A549; > 100 µM (inactive) with DLD-1; > 100 µM (inactive) in the test on EKVX; 73.6 µM (inactive) in the test with HL-60; > 100 µM (inactive) in the test with Malme-3M. Further, the GI50 in the test with RPMI-8226, with SN12C, in the test on SW-620 and in the test on UACC-62 was > 100 µM (inactive) each time.
For the molecule `Cc1ccc2nc(NC(=O)C(=O)C(C(=O)c3ccc4ccccc4c3)C3OC(=O)c4ccccc43)sc2c1` (configuration not stated), the GI50 is 6.15 µM (inactive) in the test with 786-0; 5.48 µM (inactive) with A498; 11.5 µM (inactive) with A549; 13 µM (inactive) with DLD-1; 17.5 µM (inactive) in the test with EKVX; 3.53 µM (inactive) in the test on HOP-92. Also, the GI50 with Malme-3M was 10.1 µM (inactive); in the test with OVCAR-4 it was 22.7 µM (inactive); in the test with OVCAR-5 it was 11.6 µM (inactive); in the test with RPMI-8226, 9.25 µM (inactive); with SK-MEL-2, 14.4 µM (inactive); in the test with SN12C, 13.5 µM (inactive). Besides, the figures for the GI50 in the test with SW-620 and in the test with UACC-62 were 5.86 µM (inactive) and 6.98 µM (inactive), respectively.
As for `O=C(O)C(C1NCCS1)N1C(=O)c2ccccc2C1=O` (configuration not stated), the GI50 in the test with 786-0, in the test on A498, with A549, in the test on DU-145, in the test with EKVX and in the test with HL-60 was > 100 µM (inactive) in each case. Also, the GI50 in the test with HOP-92, with Hs-578T, in the test on MCF7, in the test with MDA-MB-435, in the test on Malme-3M and in the test on NCI/ADR-RES was > 100 µM (inactive) in each case. Also, the GI50 with OVCAR-4, in the test on OVCAR-5, in the test on RPMI-8226, in the test with SK-MEL-2, in the test on SN12C and with SW-620 was > 100 µM (inactive) each time. Further, the GI50 in the test on UACC-62 is > 100 µM (inactive).

Values taken from ChEMBL document CHEMBL1201862, “PubChem BioAssay data set” (2004).
